Results published in patent publication US9562899B2, “Method of detecting OXA-048 carbapenemase producing bacteria” (BIOMÉRIEUX, priority 2012, dated 2017).

Legend:
[1] = test system: IMP strains; experiment: Temocillin MIC with EDTA in the medium (Example 2); format: cell-based, Enterobacteriaceae; conditions: Ex 2, MIC in mg/l
Text: (§1) Optimization of the Detection Specificity by Introducing Specific Inhibitors Inhibition of Class B Strains (NDM, VIM, IMP) by Adding EDTA
(§2) Identical to that used to determine the temocillin MICs by agar dilution (example 1).
(§3) For each temocillin concentration, the following concentrations of active EDTA will be tested in the form of disodium EDTA: 0, 1.77, 2.12, 2.47 and 2.83 mmol/l.
(§4) Method: identical to the method used in example 1.

[2] = test system: BLSE strains; experiment: Temocillin MIC with EDTA in the medium (Example 2); format: cell-based, Enterobacteriaceae; conditions: Ex 2, MIC in mg/l
Text: as §1, §2, §3, §4

[3] = test system: AmpC strains; experiment: Temocillin MIC with EDTA in the medium (Example 2); format: cell-based, Enterobacteriaceae; conditions: Ex 2, MIC in mg/l
Text: as §1, §2, §3, §4

[4] = test system: KPC, AmpC and MBL strains; conditions: disk comprising 30 μg of temocillin; Rosco; cited from earlier work
[5] = test system: strains with a metallo-carbapenemase; conditions: Livermore et al.; cited from earlier work

## CO[C@@]1(NC(=O)C(C(=O)O)c2ccsc2)C(=O)N2[C@@H](C(=O)O)C(C)(C)S[C@@H]21 (stereo partly shown) [temocillin]
[1]; 2.12 mmol/l of active EDTA
  No. of IMP strains with MIC >300: 1
  No. of IMP strains with MIC ≦50: 12
[1]; 2.47 mmol/l of active EDTA
  No. of IMP strains with MIC 150: 0
  No. of IMP strains with MIC 200: 0
  No. of IMP strains with MIC 300: 0
  No. of IMP strains with MIC >300: 1
  No. of IMP strains with MIC ≦50: 12
[1]; 2.83 mmol/l of active EDTA
  No. of IMP strains with MIC 150: 0
  No. of IMP strains with MIC 200: 0
  No. of IMP strains with MIC 300: 0
  No. of IMP strains with MIC >300: 1
  No. of IMP strains with MIC ≦50: 12
[2]; 0 mmol/l of EDTA
  No. of BLSE strains with MIC 150: 0
  No. of BLSE strains with MIC 200: 0
  No. of BLSE strains with MIC 300: 0
  No. of BLSE strains with MIC >300: 0
  No. of BLSE strains with MIC ≦50: 10
[2]; 1.77 mmol/l of active EDTA
  No. of BLSE strains with MIC 150: 0
  No. of BLSE strains with MIC 200: 0
  No. of BLSE strains with MIC 300: 0
  No. of BLSE strains with MIC >300: 0
  No. of BLSE strains with MIC ≦50: 10
[2]; 2.12 mmol/l of active EDTA
  No. of BLSE strains with MIC 150: 1
  No. of BLSE strains with MIC 200: 0
  No. of BLSE strains with MIC 300: 0
  No. of BLSE strains with MIC >300: 0
  No. of BLSE strains with MIC ≦50: 9
[2]; 2.47 mmol/l of active EDTA
  No. of BLSE strains with MIC 150: 0
  No. of BLSE strains with MIC 200: 0
  No. of BLSE strains with MIC 300: 0
  No. of BLSE strains with MIC >300: 0
  No. of BLSE strains with MIC ≦50: 10
[2]; 2.83 mmol/l of active EDTA
  No. of BLSE strains with MIC 150: 0
  No. of BLSE strains with MIC 200: 0
  No. of BLSE strains with MIC 300: 0
  No. of BLSE strains with MIC >300: 0
  No. of BLSE strains with MIC ≦50: 10
[3]; 0 mmol/l of EDTA
  No. of AmpC strains with MIC 150: 0
  No. of AmpC strains with MIC 200: 0
  No. of AmpC strains with MIC 300: 0
  No. of AmpC strains with MIC >300: 0
  No. of AmpC strains with MIC ≦50: 10
[3]; 1.77 mmol/l of active EDTA
  No. of AmpC strains with MIC 150: 1
  No. of AmpC strains with MIC 200: 0
  No. of AmpC strains with MIC 300: 0
  No. of AmpC strains with MIC >300: 0
  No. of AmpC strains with MIC ≦50: 9
[3]; 2.12 mmol/l of active EDTA
  No. of AmpC strains with MIC 150: 1
  No. of AmpC strains with MIC 200: 0
  No. of AmpC strains with MIC 300: 0
  No. of AmpC strains with MIC >300: 0
  No. of AmpC strains with MIC ≦50: 9
[3]; 2.47 mmol/l of active EDTA
  No. of AmpC strains with MIC 150: 0
  No. of AmpC strains with MIC 200: 0
  No. of AmpC strains with MIC 300: 0
  No. of AmpC strains with MIC >300: 0
  No. of AmpC strains with MIC ≦50: 10
[3]; 2.83 mmol/l of active EDTA
  No. of AmpC strains with MIC 150: 0
  No. of AmpC strains with MIC 200: 0
  No. of AmpC strains with MIC 300: 0
  No. of AmpC strains with MIC >300: 0
  No. of AmpC strains with MIC ≦50: 10
[4]
  inhibition of strains by temocillin disk: does not inhibit all KPC, AmpC and MBL strains
[5]
  strains resistant to temocillin: 32/35
